Patent US6635662B2, “Radicicol derivatives” (Kyowa Hakko Kogyo Co., Ltd., priority 1996, dated 2003)

Experiments:
[1] = test system: rat normal fibroblast cell line 3Y1-B; test: Growth inhibition test (MTT) on 3Y1-B; format: cell-based; details: 3Y1-B cells, 72 hours
Method: (§1) The cells were inoculated into a 96 well microplate (# 167008, manufactured by Nunc) in an amount of 1,000 cells per well and pre-cultured at 37° C. for 24 hours in a 5% carbon dioxide gas incubator using Dulbacco's modified Eagle's medium (DMEM) which had been supplemented with 10% fetal calf serum (FCS). Next, a DMSO solution of each test compound which had been adjusted to 10 mM was serially diluted with the culturing medium and add to the wells in 50 μl portions. Thereafter, the culturing was continued at 37° C. for 72 hours in the 5% carbon dioxide gas incubator. Five hours before completion of the culturing, 3-(4,5-dimethylthiazo-2-yl)-2,5-diphenyltetrazolium bromide (manufactured by Sigma, hereinafter referred to as “MTT”) which had been dissolved in the culturing medium to a final concentration of […] was dispensed into the wells in 50 μl portions. After completion of the culturing, DMSO was dispensed into the wells in […] portions, and the plate was vigorously stirred using a plate mixer to dissolve MTT-formazan crystals completely. Thereafter, absorbance at 550 nm was measured using a microplate reader MTP-32 (manufactured by Corona Denki). The cell growth inhibition activity was expressed by 50% inhibition concentration (IC50).

Raf-1 protein = test: Effect of decreasing intracellular Raf-1 protein quantity in KNRK 5.2 cells; format: cell-based, rat; details: 40 hours, Raf-1 protein/total Erk2 protein ratio halved, read-out: Raf-1 protein quantity decrease: IC50
Method: (§2) Activated K-Ras gene-introduced rat kidney epithelial cell line KNRK 5.2 was cultured at 37° C. for 40 hours in an atmosphere of 5% carbon dioxide gas using Dulbecco's modified Eagle's medium (DMEM) which was supplemented with 10% fetal calf serum (FCS) and to which was added each radicicol derivative at respective test concentration. The resulting cells were lysed for 30 minutes at 4° C. in a cooled buffer for lysis use [50 mM HEPES NaOH, pH 7.4, 250 mM sodium chloride (NaCl), 1 mM ethylenediaminetetraacetic acid (EDTA), 1% Nonidet P-40 (NP40), 1 mM dithiothreitol (DTT), 1 mM phenylmethylsulfonyl fluoride (PMSF), 5 μg/ml leupeptin, 2 mM sodium orthovanadate (Na3VO4), 1 mM sodium fluoride (NaF), 10 mM β-glycerophosphate] and then centrifuged at 30,000 G for 10 minutes. The protein content of the thus prepared supernatant fluids was measured to prepare samples having the same protein quantity for each lane, and then separation of proteins was carried out by SDS-PAGE. The thus separated protein samples were transferred on a polyvinylidene difluoride (PVDF) membrane, and then anti-phosphorylation MAPK antibody (anti-phospho MAPK, manufactured by New England Biolabs), anti-Erk2 antibody (anti-Erk2, manufactured by Upstate Biotechnology) and anti-Raf-1 antibody (anti-Raf-1 (C-12), manufactured by Santa Cruz Biotechnology) were added thereto as primary antibodies and allowed to react with the proteins on the membrane. Thereafter, a horseradish peroxidase-labeled secondary antibody (anti-rabbit Ig antibody or anti-mouse Ig antibody, manufactured by Amersham) capable of reacting with respective primary antibodies was added thereto as the secondary antibody to carry out the reaction. Detection was carried out using ECL reagent (manufactured by Amersham), and the amount of phosphorylated Erk2 protein, total Erk2 protein and Raf-1 protein was determined by carrying out density scanning of the bands generated on the X-ray film. The Erk2 phosphorylation inhibition activity of radicicol derivatives is determined by calculating the ratio of phosphorylated Erk2 protein (phosphorylated Erk2 protein/total Erk2 protein) based on the results prepared from the samples of respective drug concentrations, which is expressed as the concentration of each derivative (IC50) by which the ratio becomes half in comparison with the case in which the drug is not added.

[2] = test system: v-src oncogene transformed cell line SR-3Y1; test: Growth inhibition test (MTT) on SR-3Y1; format: cell-based; details: Rattus norvegicus, SR3Y1, SR-3Y1 cells, 72 hours
Method: as §1

Erk2 phosphorylation = Erk2 phosphorylation inhibition activity in KNRK 5.2 cells; format: cell-based; details: Rattus norvegicus, 40 hours, phosphorylated Erk2/total Erk2 ratio halved
Method: as §2

[3] = test system: human breast cancer MX-1 solid tumor; test: Antitumor test on nude mouse-transplanted human breast cancer MX-1 solid tumor; format: in vivo; details: tumor volume ratio, 100 mg/kg per day i.v. once a day for 5 days, measured day 12 after administration
Method: From a tumor lump of a human breast cancer cell line MX-1 subcultured in nude mice (BALB/c nu/nu mice: CLEA Japan), a portion showing good growth was selected and cut into a 2 mm square fragment which was then transplanted under the abdominal side skin of each male nude mouse of 7 to 9 weeks of age using a trocar. The tumor size was measured on the 13th day after the tumor transplantation to select properly growing tumors having a tumor volume of 100 to 300 mm^3 (calculated by a calculation formula of “major axis×minor axis^2×½”), the mice were optionally grouped into 5 animals per group, and then each test compound which had been dissolved in a 7.5% cremohor EL (manufactured by Sigma)/5% dimethylacetamide (DMA)/87.5% physiological saline solution was administered to the mice by intravenous injection at a dosage of 0.05 ml (100 mg/kg) per day, once a day for 5 days. The antitumor activity of each test compound was expressed by a ratio (T/C) of the tumor volume (T) in the test drug-administered group to the tumor volume (C) in the control group on the 12th or 14th day after administration of the test compound.

[4] = test system: intracellular tyrosine kinase; test: Inhibition test of intracellular tyrosine kinase (tyrosine-phosphorylated protein, Western blot); format: cell-based; details: Rattus norvegicus, SR3Y1; SR-3Y1 cells, 15 hours culture, tyrosine-phosphorylated protein reduced to half vs control; read-out: Inhibitory activity of intracellular tyrosine kinase IC50
Method: SR-3Y1 cells were cultured at 37° C. for 15 hours in an atmosphere of 5% carbon dioxide, using Dulbecco's modified Eagle's medium (DMEM) containing 10% fetal calf serum (FCS), to which each radicicol derivative to be tested had been added in varied concentration. The thus cultured cells were lysed at 4° C. for 20 minutes in a cooled buffer for lysis use (50 mM Tris HCl, pH 7.5, 150 mM sodium chloride (NaCl), 1% Triton X-100, 0.1% sodium dodecyl sulfate (SDS), 1% sodium deoxycholate, 2 mM ethylenediaminetetraacetic acid (EDTA), 1 mM phenylmethanesulfonyl fluoride (PMSF), 20 μM leupeptin, 0.15 unit/ml aprotinin, 1 mM sodium orthovanadate (Na3VO4) and then centrifuged at 20,000 G for 30 minutes. After measuring protein concentration in the resulting supernatant fluid, samples were adjusted to the same protein quantity per lane to carry out separation of protein by SDS-PAGE. […] Detection was carried out using ECL reagent (Amersham Co.), and the amount of tyrosine-phosphorylated protein was determined by scanning the density of bands prepared on an X-ray film. […]

CC1CC2OC2C=CC=CC(=NOCc2ccccc2S(=O)(=O)N(C)C)Cc2c(Cl)c(O)cc(O)c2C(=O)O1 (stereo not shown) [Compound 50]
IC50 [1]: 120 nM | IC50 (Raf-1 protein): 340 nM | IC50 [2]: 21 nM | IC50 (Erk2 phosphorylation): 350 nM

CC1CC2OC2C=CC=CC(=NOCc2cccnc2)Cc2c(Cl)c(O)cc(O)c2C(=O)O1 (stereo not shown) [Compound 53]
IC50 [1]: 8 nM | IC50 (Raf-1 protein): 380 nM | IC50 [2]: < 4 nM | T/C (%) [3]: 46% | IC50 (Erk2 phosphorylation): 70 nM

CC1CC2OC2C=CC=CC(=NOCCCCN2CCOCC2)Cc2c(Cl)c(O)cc(O)c2C(=O)O1 (stereo not shown) [Compound 64]
IC50 (Raf-1 protein): 190 nM | IC50 (Erk2 phosphorylation): 110 nM

CC1CC2OC2C=CC=CC(=NOCCN2CCCC2=O)Cc2c(Cl)c(O)cc(O)c2C(=O)O1 (stereo not shown) [Compound 69]
IC50 [1]: 8 nM | IC50 (Raf-1 protein): 120 nM | IC50 [2]: 4 nM | T/C (%) [3]: 4% | IC50 (Erk2 phosphorylation): 60 nM

CCOC(=O)ON=C1/C=C/C=C\C2OC2CC(C)OC(=O)c2c(O)cc(O)c(Cl)c2C1 (stereo not shown) [Compound 73]
IC50 [4]: 130 nM

CNC(=O)ON=C1/C=C/C=C\C2OC2CC(C)OC(=O)c2c(O)cc(O)c(Cl)c2C1 (stereo not shown) [Compound 74]
IC50 [1]: 72 nM | IC50 [2]: 27 nM

C[C@@H]1C[C@H]2O[C@@H]2/C=C\C=C\C(=O)Cc2c(Cl)c(O)cc(O)c2C(=O)O1 [Radicicol, radicicol]
IC50 [4]: 370 nM | IC50 [1]: 780 nM | IC50 [2]: 42 nM
